# Measurements: patent US20240148743A1, “USES OF MELANOCORTIN-4 RECEPTOR AGONIST” (LG CHEM, LTD., priority 2021, published 2024)
# Test system: db/db mice
# Test: db/db mouse model experiment (leptin receptor-deficient genetic obesity model, 45 kcal % high-fat diet)
# Format: in vivo
# Description: To confirm anti-obesity efficacy, N-((3S,5S)-1-((3S,4R)-1-(tert-butyl)-4-(4-chlorophenyl)pyrrolidine-3-carbonyl)-5- (morpholine-4 -carbonyl)pyrrolidin-3-yl)-N-((1s ,4R)-4-methylcyclohexyl)isobutyramide hydrochloride (hereinafter referred to as “Test Compound”) obtained in the Preparation Example was administered repeatedly for 4 weeks while feeding 45 kcal % high-fat diet (diet with 45 kcal % fat) to db/db mice which is a genetic obesity mouse model in which a mutation in the leptin receptor associated with the MC4R pathway occurred. The weight gain inhibitory effect was confirmed by measuring the body weight during the administration period, and the body fat mass reduction effect was confirmed by measuring the total body fat mass after repeated administration for 4 weeks. […] The results are represented in FIG. 1.
# [1] = body fat analysis after repeated administration for 4 weeks, compared to the negative control group
# [2] = db/db mice on 45 kcal % high-fat diet, repeated administration for 4 weeks, compared to the negative control group
structure (smiles),measurement,setting,value
"CC(C)C(=O)N([C@H]1C[C@@H](C(=O)N2CCOCC2)N(C(=O)[C@@H]2CN(C(C)(C)C)C[C@H]2c2ccc(Cl)cc2)C1)[C@H]1CC[C@@H](C)CC1.Cl [Test Compound, N-((3S,5S)-1-((3S,4R)-1-(tert-butyl)-4-(4-chlorophenyl)pyrrolidine-3-carbonyl)-5-(morpholine-4-carbonyl)pyrrolidin-3-yl)-N-((1s ,4R)-4-methylcyclohexyl)isobutyramide hydrochloride]",fat mass,[1],significantly decreased
same,fat-free mass,[1],no difference
same,body weight,[2],significantly reduced
same,weight gain rate,[2],significantly decreased
same,weight loss effect,"leptin receptor-deficient mouse model (db/db), FIG. 1",significant weight loss effect
